Source: ChEMBL document CHEMBL5518248, “Design, Synthesis, and Biological Evaluation of Novel Arylomycins against Multidrug-Resistant Gram-Negative Bacteria” (J Med Chem, 2024)
Activity calls are given as the source filed them. No cut-off for these calls is given here.

Experiments:
[1] = test system: HepG2; assay: Cytotoxicity against human HepG2 cells assessed as inhibition of cell growth incubated for 24 hrs by CCK8 method; type: functional, cell-based; conditions: HepG2, 24 h
[2] = Clearance in Sprague-Dawley rat at 10 mg/kg, iv measured upto 24 hrs LC-MS/MS analysis; type: ADME, organism-based; conditions: in vivo
[3] = test system: Klebsiella pneumoniae; assay: Antibacterial activity against Klebsiella pneumoniae 15-5 assessed as inhibition of bacterial growth measured after 18 to 20 hrs by broth microdilution method; type: functional; conditions: time 18-20 hrs
[4] = test system: Acinetobacter baumannii; assay: Antibacterial activity against Acinetobacter baumannii; type: functional
[5] = test system: Escherichia coli; assay: Antibacterial activity against Escherichia coli 14-4 assessed as inhibition of bacterial growth measured after 18 to 20 hrs by broth microdilution method; type: functional; conditions: time 18-20 hrs
[6] = AUC (0 to t) in Sprague-Dawley rat at 10 mg/kg, po measured upto 24 hrs LC-MS/MS analysis; type: ADME, organism-based; conditions: in vivo, po, 10 mg/kg, 24 h
[7] = test system: Escherichia coli; assay: Antibacterial activity against Escherichia coli 14-2 assessed as inhibition of bacterial growth measured after 18 to 20 hrs by broth microdilution method; type: functional; conditions: time 18-20 hrs
[8] = Volume of distribution at steady state in Sprague-Dawley rat at 10 mg/kg, iv measured upto 24 hrs LC-MS/MS analysis; type: ADME, organism-based; conditions: in vivo, read-out: Vdss
[9] = test system: HepG2; assay: Cytotoxicity against human HepG2 cells assessed as inhibition of cell growth at 100 uM incubated for 24 hrs by CCK8 method relative to control; type: functional
[10] = test system: Jurkat; assay: Cytotoxicity against human Jurkat cells assessed as inhibition of cell growth incubated for 24 hrs by CCK8 method; type: functional, cell-based
[11] = test system: Pseudomonas aeruginosa; assay: Antibacterial activity against Pseudomonas aeruginosa 17-1 assessed as inhibition of bacterial growth measured after 18 to 20 hrs by broth microdilution method; type: functional; conditions: time 18-20 hrs
[12] = Cytotoxicity against HEK293T cells assessed as inhibition of cell growth at 100 uM incubated for 24 hrs by CCK8 method relative to control; type: toxicity, cell-based, HEK-293T; conditions: human
[13] = AUC (0 to t) in Sprague-Dawley rat at 10 mg/kg, iv measured upto 24 hrs LC-MS/MS analysis; type: ADME, organism-based; conditions: in vivo, iv, 10 mg/kg, 24 h
[14] = Cmax in Sprague-Dawley rat at 10 mg/kg, po measured upto 24 hrs LC-MS/MS analysis; type: ADME, organism-based; conditions: in vivo
[15] = test system: Pseudomonas aeruginosa; assay: Antibacterial activity against Pseudomonas aeruginosa T-2022 assessed as inhibition of bacterial growth measured after 18 to 20 hrs by broth microdilution method; type: functional; conditions: time 18-20 hrs
[16] = Half life in Sprague-Dawley rat at 10 mg/kg, iv measured upto 24 hrs LC-MS/MS analysis; type: ADME, organism-based; conditions: in vivo
[17] = test system: Acinetobacter baumannii; assay: Antibacterial activity against Acinetobacter baumannii 17-8 assessed as inhibition of bacterial growth measured after 18 to 20 hrs by broth microdilution method; type: functional; conditions: time 18-20 hrs
[18] = MRT in Sprague-Dawley rat at 10 mg/kg, iv measured upto 24 hrs LC-MS/MS analysis; type: ADME, organism-based; conditions: in vivo
[19] = MRT in Sprague-Dawley rat at 10 mg/kg, po measured upto 24 hrs LC-MS/MS analysis; type: ADME, organism-based; conditions: in vivo
[20] = Cytotoxicity against HEK293T cells assessed as inhibition of cell growth incubated for 24 hrs by CCK8 method; type: toxicity, cell-based, HEK-293T; conditions: human
[21] = test system: Pseudomonas aeruginosa; assay: Antibacterial activity against Pseudomonas aeruginosa; type: functional
[22] = Oral bioavailability in Sprague-Dawley rat at 10 mg/kg measured upto 24 hrs LC-MS/MS analysis; type: ADME, organism-based; conditions: in vivo, po, 10 mg/kg, 24 h
[23] = test system: Escherichia coli; assay: Antibacterial activity against Escherichia coli ATCC 35218 assessed as inhibition of bacterial growth measured after 18 to 20 hrs by broth microdilution method; type: functional; conditions: time 18-20 hrs
[24] = test system: Pseudomonas aeruginosa; assay: Antibacterial activity against Pseudomonas aeruginosa 19-5 assessed as inhibition of bacterial growth measured after 18 to 20 hrs by broth microdilution method; type: functional; conditions: time 18-20 hrs
[25] = test system: Klebsiella pneumoniae; assay: Antibacterial activity against Klebsiella pneumoniae 15-1 assessed as inhibition of bacterial growth measured after 18 to 20 hrs by broth microdilution method; type: functional; conditions: time 18-20 hrs
[26] = Half life in Sprague-Dawley rat at 10 mg/kg, po measured upto 24 hrs LC-MS/MS analysis; type: ADME, organism-based; conditions: in vivo
[27] = test system: Pseudomonas aeruginosa; assay: Antibacterial efficacy against multi drug resistant Pseudomonas aeruginosa T-2022-D2-048 infected in cyclophosphamide-induced neutropenic thigh infection ICR mouse model assessed as decrease in bacterial burden administered as iv dose measured after 24 hrs; type: functional, organism-based; conditions: dose 3-12 mg/kg
[28] = test system: Acinetobacter baumannii; assay: Antibacterial activity against Acinetobacter baumannii 17-2 assessed as inhibition of bacterial growth measured after 18 to 20 hrs by broth microdilution method; type: functional; conditions: time 18-20 hrs
[29] = test system: Jurkat; assay: Cytotoxicity against human Jurkat cells assessed as inhibition of cell growth at 100 uM incubated for 24 hrs by CCK8 method relative to control; type: functional
[30] = test system: Klebsiella pneumoniae; assay: Antibacterial activity against Klebsiella pneumoniae 15-4 assessed as inhibition of bacterial growth measured after 18 to 20 hrs by broth microdilution method; type: functional; conditions: time 18-20 hrs
[31] = Tmax in Sprague-Dawley rat at 10 mg/kg, po measured upto 24 hrs LC-MS/MS analysis; type: ADME, organism-based; conditions: in vivo

Compound: Cc1nc(-c2ccc(C(C)(C)C)cc2)ncc1C(=O)N[C@@H](CCN)C(=O)N(C)[C@@H]1C(=O)N[C@@H](C)C(=O)N[C@H](C(=O)NCC#N)Cc2ccc(OCCN)c(c2)-c2cc1ccc2OCCN.Cl.Cl.Cl.Cl
- IC50 [1]: > 100 µM
- clearance [2]: 2.71 mL/min/kg
- MIC [3]: 0.06 µg/mL
- MIC90 [4]: 4 µg/mL
- MIC [5]: ≤ 0.03 µg/mL
- AUCt [6]: 9.01 ng·h/mL
- MIC [7]: ≤ 0.03 µg/mL
- Vd [8]: 0.423 L/kg
- inhibition at 100 µM [9]: -3.46%
- IC50 [10]: > 100 µM
- MIC [11]: 32 µg/mL
- inhibition at 24 h, 100 µM [12]: 37.9%
- AUCt [13]: 61496 ng·h/mL
- Cmax [14]: 3.37 ng/mL
- MIC [15]: 8 µg/mL
- half-life [16]: 1.51 h
- MIC [17]: 1 µg/mL
- MRT [18]: 2.62 h
- MRT [19]: 2.69 h
- IC50 at 24 h [20]: > 100 µM
- MIC90 [21]: 16 µg/mL
- F [22]: 0.1%
- MIC [23]: ≤ 0.03 µg/mL
- MIC [24]: 16 µg/mL
- MIC [25]: ≤ 0.03 µg/mL
- half-life [26]: 1.56 h
- Activity [27]: inactive
- MIC [28]: 2 µg/mL
- inhibition at 100 µM [29]: 20.8%
- MIC [30]: 0.125 µg/mL
- Tmax [31]: 1.17 h
